According to US11850277B2, “Treatment of lower urinary tract epithelium with glucagon like peptide 2” (URIGEN N.A., priority 2017, dated 2023):

Legend:
[1] = phase IIB study; cited from earlier work
intestinal epithelium = details: normal and treated rat inflammatory bowel disease models and ischemic reperfusion injured mice; cited from earlier work
[2] = in vivo; cited from earlier work
GLP-2R = target: T1, GLP-2R (Rattus norvegicus, UniProt Q9Z0W0); details: iv injected radiolabeled GLP-2, autoradiography; cited from earlier work
T1 construct: host or cells: Tissues of the living animal (kidneys, liver, gastrointestinal tract and others), endogenous receptor
T1 sequence (Q9Z0W0 1-550): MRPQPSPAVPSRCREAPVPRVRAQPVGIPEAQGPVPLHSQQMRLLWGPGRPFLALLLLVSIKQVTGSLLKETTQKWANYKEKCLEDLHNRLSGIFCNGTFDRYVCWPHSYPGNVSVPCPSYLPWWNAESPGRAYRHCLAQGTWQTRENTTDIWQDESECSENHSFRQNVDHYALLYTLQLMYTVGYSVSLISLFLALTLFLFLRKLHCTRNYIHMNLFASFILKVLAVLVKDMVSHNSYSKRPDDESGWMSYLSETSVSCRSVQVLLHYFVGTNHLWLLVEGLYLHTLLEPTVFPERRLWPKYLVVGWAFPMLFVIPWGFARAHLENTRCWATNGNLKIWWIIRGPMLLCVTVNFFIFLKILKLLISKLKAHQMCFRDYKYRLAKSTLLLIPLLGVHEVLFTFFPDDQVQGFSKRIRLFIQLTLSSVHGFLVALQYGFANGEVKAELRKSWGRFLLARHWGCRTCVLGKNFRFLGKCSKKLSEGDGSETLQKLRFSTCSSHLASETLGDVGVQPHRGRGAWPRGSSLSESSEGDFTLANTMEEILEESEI

[3] = system: non-tumorigenic primary human bladder epithelial cells (ATCC-PCS-420-010); assay: BrdU cell proliferation assay (BrdU incorporation into DNA); assay type: cell-based; details: cells starved 48 hours in low nutrient (0.5%) medium; for DNA synthesis as measured by BrdU incorporation: BrdU added concurrently
Experimental: FIG. 1 presents a histogram plot depicting results from a BrdU cell proliferation assay. Primary human bladder epithelial cells were nutrient starved as indicated and treated with GLP-2 for 24 hours at the indicated concentrations
FIG. 2 presents a histogram plot depicting results from a BrdU cell proliferation assay. Primary human bladder epithelial cells were nutrient starved as indicated and treated with GLP-2 for 48 hours at the indicated concentrations.
URG-801/GLP-2 mediated cell proliferation was detected by assaying BrdU incorporation into DNA using non-tumorigenic primary human bladder epithelial cells. An exemplary non-tumorigenic primary human bladder epithelial cell line is ATCC-PCS-420-010, which may be purchased from the American Type Culture Collection (ATCC) repository. Briefly, ATCC-PCS-420-010 cells were starved for 48 hours in low nutrient (0.5%) medium and then GLP-2 was added to the culture medium at the indicated concentrations and the cells were cultured for an additional 24 hours in the presence of GLP-2. As indicated in the timeline presented in FIG. 1, bromodeoxyuridine (BrdU) was added concurrently with the GLP-2.
To investigate further parameters affecting GLP-2 induced bladder epithelial cell proliferation, the duration of culturing in the presence of GLP-2 was extended. In this experimental protocol, ATCC-PCS-420-010 cells were starved for 48 hours in low nutrient (0.5%) medium and then GLP-2 was added to the culture medium at the indicated concentrations and the cells were cultured for ab additional 48 hours in the presence of GLP-2. As indicated in the timeline presented in FIG. 2, BrdU was added concurrently with the GLP-2.

[4] = then cultured 48 hours with GLP-2, FIG. 2

Substance: elsiglutide
- efficacy in chemotherapy-induced diarrhea [1]: failed to reach statistical significance

Substance: HADGSFSDEMNTILDNLAARDFINWLIQTKITD [GLP-2]
- effect on intestinal/mucosal mass and damage (intestinal epithelium): enhanced intestinal/mucosal mass and attenuated damage
- half life in circulation [2]: 3 to 7 min
- binding to submandibular gland, lung, brain, heart, adipose tissue, skeletal muscle, uterus, ovary, urinary bladder, adrenal gland, thyroid gland, or skin (GLP-2R): does not bind
- tissues to which radiolabeled GLP-2 binds (GLP-2R): binds predominantly to the kidneys, liver, and gastrointestinal tract
- DNA synthesis as measured by BrdU incorporation ([3]; then cultured 24 hours with GLP-2, FIG. 1): dose dependent increase in DNA synthesis
- DNA synthesis as measured by BrdU incorporation [3, 4]: dose dependent increase in DNA synthesis
- GLP-2 concentration at which BrdU incorporation peaked (bell shaped curve) [3, 4]: 0.1 µM
